Data taken from article PMC10439028, “SGLT5 is the renal transporter for 1,5-anhydroglucitol, a major player in two rare forms of neutropenia” (Cellular and Molecular Life Sciences: CMLS, 2023).
Substitutions are numbered along the chain they refer to.

Key:
[1] = target: T1, hSGLT5 Gly471Glu (Homo sapiens, UniProt A0PJK1, G471E); test: 1,5-AG uptake in HEK293T cells overexpressing SGLT5 variant Gly471Glu; type: cell-based
T1 construct: pUB83-hSGLT5-iso2 as well as the various SGLT5 mutants obtained were used to transduce HEK293T cells; expressed in transfected cells; host or cells: HEK293T, lentiviral transduction (pUB83)
T1 sequence (A0PJK1 1-596 G471E): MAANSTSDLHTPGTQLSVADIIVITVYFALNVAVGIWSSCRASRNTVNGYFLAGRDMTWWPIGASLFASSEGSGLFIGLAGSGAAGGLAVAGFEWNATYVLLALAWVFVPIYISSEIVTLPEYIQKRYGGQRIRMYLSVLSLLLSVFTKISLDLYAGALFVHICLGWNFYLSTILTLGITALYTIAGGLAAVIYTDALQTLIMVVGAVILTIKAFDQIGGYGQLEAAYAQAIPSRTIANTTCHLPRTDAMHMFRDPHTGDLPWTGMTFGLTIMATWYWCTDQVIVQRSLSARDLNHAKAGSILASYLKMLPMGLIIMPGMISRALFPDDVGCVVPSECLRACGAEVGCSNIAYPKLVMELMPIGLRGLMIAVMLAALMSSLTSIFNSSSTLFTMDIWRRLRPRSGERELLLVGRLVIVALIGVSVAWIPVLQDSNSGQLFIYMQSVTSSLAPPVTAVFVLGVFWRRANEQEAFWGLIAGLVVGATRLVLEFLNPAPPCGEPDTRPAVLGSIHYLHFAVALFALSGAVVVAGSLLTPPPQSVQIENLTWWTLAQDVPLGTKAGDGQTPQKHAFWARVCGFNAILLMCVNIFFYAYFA
Protocol: For a typical transporter experiment we proceeded as follows. […] To minimize cell loss during the various washing steps in the radioactive uptake experiments, the wells where the cells were seeded were previously coated with poly- D-lysine, which improved their adhesion to the plastic surface of the wells. For this, each well of the 24-well plates was treated with 200 µl of a 0.01% poly-L-lysine solution for 10 min, washed 3 times with 1 ml of sterilized water and left to dry for 2 h. Only then could the 24-well plates be seeded with the appropriate cell lines and cultured overnight at 37 °C in 5% CO2.
On day two, the radioactive uptake assay could be performed. The cell culture media was removed by aspiration and cells were incubated for 20 min at 37 °C and 5% CO2 with a basal medium (10 mM HEPES, pH 7.4, 1 mM CaCl2, 1 mM MgCl2, 2 mM KCl) containing 140 mM choline chloride to deplete intracellular […] ions. This was subsequently replaced with the uptake medium (basal medium + 140 mM NaCl, 25 μM cytochalasin B, 1 mg/ml BSA) containing either radioactive U-[^14C]-mannose (15,000 cpm/well) or 2-[^3H]-1,5-AG (30,000 cpm/well) and respectively, non-radioactive mannose or 1,5-AG, at the required concentration in the experiment. Importantly, when measuring the transport of mannose, the uptake media also contained 0.5 mM glucose. This resulted from the need to reduce the background transport of mannose in control HEK293T cells in order to optimize the transport assay for this sugar in our model cell lines. […]
Once the uptake medium was added to the cells, the plates were incubated at 37 °C in 5% CO2 during the required time. […] In each experiment, the transport activities were calculated after subtracting a “blank” value, corresponding to the radioactivity in the appropriate control cells (HEK293T cells that were stably or transiently transfected with one of the parent plasmids pEF6/MycHisA, pEF6HisB, pUB82 or pUB83 with no inserted cDNA) that were analyzed in parallel. […]

[2] = target: T2, hSGLT5 Ala522Val (Homo sapiens, UniProt A0PJK1, A522V); test: Inhibition of 10 µM 1,5-AG transport by SGLT5 variant Ala522Val; type: cell-based; details: Fig. 5D
T2 construct: pUB83-hSGLT5-iso2 as well as the various SGLT5 mutants obtained were used to transduce HEK293T cells; expressed in transfected cells; host or cells: HEK293T, lentiviral transduction (pUB83)
T2 sequence (A0PJK1 1-596 A522V): T1 sequence (A0PJK1 1-596 G471E) with E471G, A522V
Protocol: The transport experiments to study the specificity of SGLT4 or SGLT5, were performed in the presence of 10 µM U-[^14C + ^12C]-mannose (for SGLT4) or 2-[^3H + ^1H]-1,5-AG (for SGLT5) and increasing concentrations of various sugars tested. The transport experiments to study the inhibition of empagliflozin, dapagliflozin or remogliflozin, on the transport of 1,5-AG by SGLT5 or its variants were performed in the presence of 10 µM 2-[^3H + ^1H]-1,5-AG and increasing concentrations of the various gliflozins tested.
SGLT5 mutants were created using the quick-change site directed mutagenesis method that enables effective mutagenesis without subcloning of the amplified PCR products. Complementary primer pairs carrying the desired replacements (Supplementary Table 3) were designed using an online tool (https://www.agilent.com/store/primerDesignProgram.jsp). The PCR protocol was carried out following the manufacturer instructions regarding the KOD HOT Start polymerase kit (TOYOBO™, Novagen). The amplified DNA was cleaned-up from the reactions constituents using the GeneJET PCR purification Kit (Thermo Scientific™) and the size of the DNA fragment were verified by DNA agarose-gel electrophoresis. […]

| Compound | Vmax ([1]; variant Gly471Glu) | effect of mutation on ability of SGLT5 to transport 1,5-AG ([1]; variant Gly471Glu) | Km for 1,5-AG ([1]; variant Gly471Glu (rs61741107)) | effect of mutation on concentration of empagliflozin needed to inhibit SGLT5 [2] |
| --- | --- | --- | --- | --- |
| OC[C@H]1OC[C@H](O)[C@@H](O)[C@@H]1O [1,5-AG, 1,5-anhydroglucitol] | No transport | abolished | No transport |  |
| OC[C@H]1O[C@@H](c2ccc(Cl)c(Cc3ccc(O[C@H]4CCOC4)cc3)c2)[C@H](O)[C@@H](O)[C@@H]1O [empagliflozin] |  |  |  | did not affect significantly |
